Laboratory results from patent US20230256017A1, “METHODS OF MAKING CHIMERIC ANTIGEN RECEPTOR-EXPRESSING CELLS” (Novartis AG, priority 2020, published 2023).

Columns and labels:
Assay type in all cases: cell-based
T cells [1] = test: ARM-BCMA CAR expression kinetics in vitro with or without AZT (FACS); settings: 30 µM and 100 µM doses
Method: In contrast to TM which measures lentiviral integration of the CAR transgene after 8-9 days, in the ARM process, the lentiviral transgene may not be fully integrated and truly expressed within 24h post lentiviral addition, as lentiviral pseudotransduction could occur (Haas DL, et al., (2000) Mol Ther; 2(1):71-80; Galla M, et al., (2004) Mol Cell; 16(2):309-15). […] Flow cytometry (FACS) analyses were performed to detect CAR surface expression at 24 h, 48 h, 72 h, 96 h and 168 h post T cell activation and transduction with the lentiviral vector. In some cases, ARM-BCMA CAR and an aliquot of this product were frozen down immediately upon harvest for additional characterization in other assays.

T cells [2] = test: Cytokine process: T cell differentiation status and CAR transduction by flow cytometry; settings: purified T cells incubated with cytokine, no other activation stimulus
Method: The cells were immunophenotyped for T cell differentiation status and transduction of the CAR was assessed using flow cytometry. The cells were washed, viability dye was added followed by the antibody cocktail (Table 20), and the plates were incubated for 20 minutes at room temperature. After the incubation, the cells were washed twice and fixed prior to being analyzed on the BD fortessa.

T cells [3] = test: T cell expansion with cytokines after TCR stimulation (cell surface staining)
Method: Previously frozen T cells were thawed and contacted with αCD3/αCD28 dynal beads (cell to bead ratio of 1 to 3) in the presence of indicated cytokines at day 0. From day 3, twice more T cell growth media (RPMI1640, 10% FBS, 2 mM L-glutamin, 100 µM non-essential amino acids, 1 mM sodium pyruvate, 10 mM Hepes, 55 µM β-mercaptoethanol, 10% FBS, and 100 U/ml of penicillin-streptomycin) was added to the plate with indicated cytokines (without cytokine, rhIL2 (50 IU/ml, Novartis), IL6 (10 ng/ml, R&D systems), IL7 (10 ng/ml, Peprotech), IL15 (10 ng/ml, Peprotech), and IL21 (10 ng/ml, Peprotech)) at day 3, 5, 6, 9, 12, 15, and 18.
Cells were harvested at indicated time points and then stained with live/dead dye (eFluro780, eBioscience), CD3 (BioLegend, clone#: OKT3), CD4 (BioLegend, clone#: OKT4), CD8 (BD Bioscience, clone#: RPA-T8), CD45RO (BioLegend, clone#: UCHL1), CCR7 (BioLegend, clone#: G043H7), CD27 (BD Horizon, clone#: L128), CD127 (BioLegend, clone#: A019D5), CD57 (BioLegend, clone#: HCD57), CD126 (BioLegend, clon#: UV4), and CD130 (R&D Systems, clone#: 28126) antibodies. The cells were acquired by FACS Fortessa and then FlowJo program was used for data analysis.

Cc1cn([C@H]2C[C@H](N=[N+]=[N-])[C@@H](CO)O2)c(=O)[nH]c1=O [AZT, 3′-azido-3′-deoxythymidine]
inhibition of CAR expression (T cells [1]): effectively inhibit CAR expression

IL-15: cytokine used in T cell culture
maintenance of self-renewing T cells (CD45RO-CCR7+) (T cells [2]): maintained self-renewing T cells in vitro

IL15: cytokine present during activation of T cells with αCD3αCD28 beads
expansion of IL6Rβ expressing cells (T cells [3]; αCD3/αCD28 beads plus cytokine): enhanced expansion of IL6Rβ expressing cells | T cell expansion (T cells [3]; αCD3/αCD28 beads plus indicated cytokine): enhanced T cell expansion, with IL15 showing the greatest enhancement
